Measured values reported in PubChem BioAssay AID816 (SRMLSC, 2007).
Activity calls are given as the source filed them. No rule for the calls is given here.

Tested on: S. cerevisiae GAL1 promoter reporter activation counterscreen
Experiment: GAL1 promoter activators in yeast, artefact control for yeast lifespan extension project, S. cerevisiae (AID 816);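 also: yeast growth read after 24 h of incubation with compounds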

Row | SMILES | EC50
1 | CCNCCNC(=O)c1c(O)c2cccc3c2n(c1=O)CCC3 | > 40 µM (inactive)
2 | Oc1ccc(Br)cc1C=Nc1ccc2[nH]ncc2c1 | > 40 µM (inactive)
3 | Cc1cc(C)n2cc(CSc3nnc(N)s3)nc2n1 | > 40 µM (inactive)
4 | COC(=O)CCS(=O)(=O)c1nc(-c2ccccc2)cc(C(F)(F)F)n1 | > 40 µM (inactive)
5 | CCN1CCCC1CNC(=O)COc1cc(=O)n(C)c2ccccc12 (stereo not given) | > 40 µM (inactive)
6 | CCCCCn1c(=O)c(C(=O)NCc2ccccn2)c(O)c2ccccc21 | > 40 µM (inactive)
7 | CC1(C)CC2c3cccc(C(=O)O)c3C(=O)N2c2c1ccc1ccccc21 (stereo not given) | > 40 µM (inactive)
8 | CCc1ccc(CC2S/C(=C(\C#N)C(C)=O)NC2=O)cc1 (stereo not given) | > 40 µM (inactive)
9 | Cc1ccc(N/C(C(Cl)=C(Cl)Cl)=C(/Cl)[N+](=O)[O-])c(C)c1 | > 40 µM (inactive)
10 | O=C(CCc1ccccc1)NCCCN1CCOCC1 | > 40 µM (inactive)
11 | COc1ccc(C(C)NC(=O)c2ccccc2)cc1 (stereo not given) | > 40 µM (inactive)
12 | CCCc1[nH]nc2c1C(c1ccc(Br)s1)C(C#N)=C(N)O2 (stereo not given) | > 40 µM (inactive)
13 | Cc1ccc(Oc2nc3ccccc3n3c(C)nnc23)c(C)c1 | > 40 µM (inactive)
14 | CCCc1nc2c(c(=O)c3ccccc3n2C)c(=O)n1C1CCCCCC1 | > 40 µM (inactive)
15 | CC1=NN(Cc2ccccc2)C(=O)C1C(c1ccccc1)C(C#N)C#N (stereo not given) | > 40 µM (inactive)
16 | O=C(NCc1cccnc1)c1ccc(S(=O)(=O)N2CCCCC2)cc1 | > 40 µM (inactive)
17 | CC(C)OCCCNS(=O)(=O)c1ccc2ccccc2c1 | > 40 µM (inactive)
18 | O=C(Nc1nccs1)c1ccc2c(=O)n3c(nc2c1)CCCCC3 | > 40 µM (inactive)
19 | CC1CCCCN1C(=S)Nc1ccc2nc3n(c(=O)c2c1)CCCCC3 (stereo not given) | > 40 µM (inactive)
20 | CC(=O)Oc1ccccc1N1C(=O)c2ccc(C(=O)O)cc2C1=O | > 40 µM (inactive)

Row | SMILES | EC50
21 | CCOC(=O)CCS(=O)(=O)c1nc(-c2ccccc2)cc(C(F)(F)F)n1 | > 40 µM (inactive)
22 | Cc1ccc(/C=C2/C(=O)NC(=O)N(CCc3ccc(F)cc3)C2=O)o1 | > 40 µM (inactive)
23 | O=C1c2ccccc2NC(c2ccc(Cl)cc2Cl)N1O (stereo not given) | > 40 µM (inactive)
24 | O=C(COc1ccc([N+](=O)[O-])cc1)N(Cc1ccccc1)Cc1ccccc1 | > 40 µM (inactive)
25 | O=c1cc(O)c2c(=O)n(-c3ccccc3)c3c(c2o1)CCCCC3 | > 40 µM (inactive)
26 | O=C(N/N=C/c1cccc(F)c1)c1c(O)c2ccccc2[nH]c1=O | > 40 µM (inactive)
27 | COc1cc(OC)cc(-c2nc3ccccc3c(=O)n2OC(=O)c2ccc(C)c(C)c2)c1 | > 40 µM (inactive)
28 | CCc1ccc2nc(N3C(=O)C(O)=C(C(=O)c4ccco4)C3c3cccs3)sc2c1 (stereo not given) | > 40 µM (inactive)
29 | COCCn1c(SCC(=O)Nc2ccc(C)cc2)nc2c(oc3ccccc32)c1=O | > 40 µM (inactive)
30 | C=CCN(CC=C)S(=O)(=O)c1ccc2nc(NC(=O)C(C)C)sc2c1 | > 40 µM (inactive)
31 | Cc1ccsc1C(=O)Nc1nnc(-c2ccco2)o1 | > 40 µM (inactive)
32 | Cc1ccc(N(C)C(=O)Oc2ccc(C(=O)c3ccc(Cl)cc3)cc2)cc1 | > 40 µM (inactive)
33 | O=c1[nH]c2ccccc2nc1Cc1ccccc1 | > 40 µM (inactive)
34 | Cc1c(O)c(S(=O)c2ccccc2)c(=O)n(-c2ccccc2)c1-c1ccccc1 (stereo not given) | > 40 µM (inactive)
35 | O=C(CCl)c1ccc(Cc2ncc(C(F)(F)F)cc2Cl)s1 | > 40 µM (inactive)
36 | Cc1ccccc1OC(=O)n1c(=S)oc2cc(Cl)ccc21 | > 40 µM (inactive)
37 | CCn1c(=O)c2c(O)cc(=O)oc2c2ccccc21 | > 40 µM (inactive)
38 | COn1c(SC2CCCCC2)nc2ccccc2c1=O | > 40 µM (inactive)
39 | CCCC(=O)Nc1ccc(C(=O)NNC(=S)NC(=O)c2cccs2)cc1 | > 40 µM (inactive)
40 | CC(=C1C(=O)c2ccccc2C1=O)N1CCN(C/C=C/c2ccccc2)CC1 | > 40 µM (inactive)
